ChEMBL document CHEMBL1201862, “PubChem BioAssay data set” (2004)
Calls of active or inactive are those of the source. For most assays here, no stated cut-off is given here; in the data, actives have a measured EC50 and inactives only a lower limit.

Legend:
[1] = target: Induced myeloid leukemia cell differentiation protein Mcl-1 (Homo sapiens, UniProt Q07820); assay: MCL1-BIM BH3 interaction inhibitors, dose response, biochemical, fluorescence polarization, BIM-BH3 peptide, 1536-well (AID 2217)
Bcl-2-like protein 1 = Bcl-2-like protein 1 (Homo sapiens, UniProt Q07817); assay: BCL-XL inhibitors, dose response, selectivity assay for MCL1 inhibitor project, biochemical, fluorescence polarization, 1536-well (AID 2218)
[2] = C. albicans growth with fluconazole, confirmation, fluorescence, retest (AID 2467); type: functional, cell-based
[3] = NIH-3T3 fibroblast cytotoxicity, dose response, cytotoxicity control, cell-based, fluorescence, Alamar Blue, secondary assay (AID 2327); type: functional;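 further: NIH-3T3 mouse fibroblasts cultured with fluconazole at 8 µg/mL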
[4] = target: T1, Nuclear receptor subfamily 0 group B member 1 (Homo sapiens, UniProt P51843); type: functional, cell-based;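 further: HEK293T cells transfected with SF-1 and DAX-1 plus StAR promoter luciferase reporter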
T1 sequence (P51843 whole entry): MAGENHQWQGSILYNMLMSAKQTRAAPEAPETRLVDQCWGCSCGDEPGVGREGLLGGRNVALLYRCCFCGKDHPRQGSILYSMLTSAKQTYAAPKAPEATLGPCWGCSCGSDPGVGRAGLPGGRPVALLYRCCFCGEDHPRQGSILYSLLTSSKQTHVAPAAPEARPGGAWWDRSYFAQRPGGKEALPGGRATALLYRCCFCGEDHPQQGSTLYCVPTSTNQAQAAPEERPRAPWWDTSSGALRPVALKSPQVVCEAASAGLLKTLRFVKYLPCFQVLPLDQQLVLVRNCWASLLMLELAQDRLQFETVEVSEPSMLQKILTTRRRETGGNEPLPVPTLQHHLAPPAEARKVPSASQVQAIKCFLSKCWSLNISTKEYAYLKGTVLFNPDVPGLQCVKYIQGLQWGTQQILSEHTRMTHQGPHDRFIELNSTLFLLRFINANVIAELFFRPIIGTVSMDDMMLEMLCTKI

[5] = Luminescence-based dose response cell-based high throughput screening assay for cytotoxic compounds using the IEC-6 intestinal epithelial cell line. [Related pubchem assays: 1858 (Summary AID.), 1825 (Counterscreen.), 1907 (Confirmation screen.)]; type: functional
BJ [6] = assay: cells; type: functional, cell-based; settings: Homo sapiens
[7] = cytotoxicity toward DRD oncogenic fibroblasts, dose response, cell-based, non-viral oncogenic, luminescence (AID 1934); type: functional; settings: Homo sapiens
cells = type: functional, cell-based
BJ [8] = assay: cytotoxicity toward Ras-transformed BJeLR fibroblasts, dose response, cell-based, alamar blue fluorescence, cherrypicked samples (AID 2631); type: functional; settings: Homo sapiens;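 further: confirmatory dose-response assay in RAS-dependent BJ fibroblasts engineered with TERT, LT and ST, with cytotoxicity read by fluorescence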
BJ [9] = assay: cytotoxicity toward BJ-TERT fibroblasts, dose response, cell-based, RAS-independent, luminescence (AID 1933); type: functional; settings: Homo sapiens

Bcl-2-like protein 1, sequence (Q07817 whole entry): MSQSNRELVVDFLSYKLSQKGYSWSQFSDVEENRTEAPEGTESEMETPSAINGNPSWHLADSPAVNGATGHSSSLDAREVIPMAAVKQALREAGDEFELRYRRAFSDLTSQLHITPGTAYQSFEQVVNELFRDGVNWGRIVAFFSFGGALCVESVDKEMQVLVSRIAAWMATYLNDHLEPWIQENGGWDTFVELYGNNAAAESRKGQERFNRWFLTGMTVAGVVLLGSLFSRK
Induced myeloid leukemia cell differentiation protein Mcl-1, sequence (Q07820 whole entry): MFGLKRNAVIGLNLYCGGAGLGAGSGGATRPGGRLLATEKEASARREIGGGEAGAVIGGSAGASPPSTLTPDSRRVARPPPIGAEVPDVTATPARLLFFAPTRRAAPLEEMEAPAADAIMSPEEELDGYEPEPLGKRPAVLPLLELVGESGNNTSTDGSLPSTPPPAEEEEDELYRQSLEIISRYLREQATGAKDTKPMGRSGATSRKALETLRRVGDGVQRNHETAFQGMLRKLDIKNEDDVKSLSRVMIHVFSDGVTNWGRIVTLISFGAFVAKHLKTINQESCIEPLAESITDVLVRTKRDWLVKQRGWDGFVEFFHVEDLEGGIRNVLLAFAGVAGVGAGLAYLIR

SMILES | IC50 [1] | IC50 (Bcl-2-like protein 1) | EC50 [2] | EC50 [3] | IC50 [4] | IC50 [5] | EC50 (BJ [6]) | EC50 [7] | IC50 (cells) | EC50 (BJ [8]) | EC50 (BJ [9])
CC12CCC(C(=O)N(NC(=O)c3ccccc3O)C1=O)C2(C)C (stereo unspecified) | > 109000 nM (not active) | > 109000 nM (not active) | > 38000 nM (not active) | > 160000 nM (inactive) |  |  |  |  |  |  | 
N#Cc1c(NC(=O)/C=C/c2ccco2)sc2c1CCCC2 |  |  |  |  | 1430 nM (active) | 136 nM (active) | 1480 nM (inconclusive) | 278 nM (active) | > 67600 nM (inactive) | < 104 nM (active) | 181 nM (active)
